Experiments:
Experiment in all cases: CTG-3D luminescence at 96 h relative to day-0 seeding control (ratio to day 0); higher = more growth / less cytotoxicity; PDxO 3D drug screen, 96 h, CTG-3D normalised to day-0 seeding control.
HCI-002 = system: HCI-002 (organoid from a triple-negative breast cancer xenograft)
HCI-012 = system: HCI-012 (organoid from a breast cancer xenograft)
HCI-023 = system: HCI-023 (organoid from a triple-negative breast cancer xenograft)
HCI-024 = system: HCI-024 (organoid from a breast cancer xenograft)
HCI-025 = system: HCI-025 (organoid from a breast cancer xenograft)

CCc1c2c(nc3ccc(O)cc13)-c1cc3c(c(=O)n1C2)COC(=O)[C@]3(O)CC [SN-38]
CTG-3D luminescence at 96 h
Settings | 12.5 pM | 0.00025 µM | 0.005 µM | 0.1 µM | 1 µM | 10 µM | 100 µM | 625 fM
HCI-002, days in culture: 62 | 3.11 | 2.44 | 1.01 | 0.53 | 0.117 | 0.0334 | 0.0217 | 3.05
HCI-002, days in culture: 82 | 3.04 | 3.05 | 1.13 | 0.606 | 0.265 | 0.0317 | 0.0208 | 3.43
HCI-002, days in culture: 91 | 3.6 | 2.86 | 0.92 | 0.659 | 0.289 | 0.0365 | 0.0217 | 3.54
HCI-002, days in culture: 191 | 2.67 | 2.76 | 1.31 | 0.721 | 0.356 | 0.0269 | 0.0208 | 2.87
HCI-002, days in culture: 209 | 2.21 | 2.28 | 0.962 | 0.556 | 0.155 | 0.0238 | 0.0205 | 2.49
HCI-002, days in culture: 227 | 5.46 | 4.33 | 1.89 | 1.13 | 0.464 | 0.0608 | 0.038 | 5.49
HCI-012, days in culture: 143 | 1.85 | 2.16 | 0.415 | 0.0623 | 0.0329 | 0.0255 | 0.0169 | 1.9
HCI-012, days in culture: 162 | 2.38 | 1.99 | 0.295 | 0.0642 | 0.0329 | 0.0269 | 0.0164 | 2.73
HCI-012, days in culture: 201 | 2.31 | 1.99 | 0.824 | 0.0348 | 0.0248 | 0.0127 | 0.014 | 1.61
HCI-023, days in culture: 111 | 1.39 | 1.19 | 0.797 | 0.194 | 0.0332 | 0.0191 | 0.0103 | 1.53
HCI-023, days in culture: 128 | 2.09 | 1.68 | 0.754 | 0.391 | 0.0587 | 0.0307 | 0.0252 | 1.9
HCI-024, days in culture: 105 | 1.67 | 1.42 | 1.1 | 0.734 | 0.264 | 0.153 | 0.114 | 1.9
HCI-024, days in culture: 122 | 2.16 | 2.39 | 1.58 | 0.768 | 0.272 | 0.192 | 0.13 | 2.86
HCI-024, days in culture: 163 | 1.84 | 1.76 | 1.18 | 0.824 | 0.262 | 0.185 | 0.173 | 2.01
HCI-025, days in culture: 172 | 3.42 | 1.7 | 2.12 | 0.486 | 0.295 | 0.0768 | 0.0418 | 2.35
HCI-025, days in culture: 209 | 1.97 | 2.36 | 1.12 | 0.295 | 0.181 | 0.0722 | 0.0384 | 1.53
HCI-025, days in culture: 218 | 1.5 | 1.73 | 0.75 | 0.244 | 0.0898 | 0.0616 | 0.0407 | 1.53

C=CC(=O)N1CCC[C@@H](n2nc(-c3ccc(Oc4ccccc4)cc3)c3c(N)ncnc32)C1 [ibrutinib]
CTG-3D luminescence at 96 h
Settings | 12.5 pM | 0.00025 µM | 0.005 µM | 0.1 µM | 1 µM | 10 µM | 100 µM | 625 fM
HCI-002, days in culture: 62 | 2.83 | 2.33 | 2.92 | 2.77 | 1.54 | 1.45 | -0.0218 | 2.97
HCI-002, days in culture: 82 | 3.16 | 2.97 | 2.43 | 2.38 | 1.77 | 1.32 | -0.0175 | 2.68
HCI-002, days in culture: 91 | 3.98 | 3.44 | 3.33 | 3.61 | 2.11 | 1.75 | -0.0238 | 3.98
HCI-002, days in culture: 191 | 2.76 | 2.47 | 2.21 | 2.23 | 1.69 | 1.34 | -0.014 | 2.82
HCI-002, days in culture: 209 | 2.33 | 2.16 | 2.33 | 1.87 | 1.63 | 1 | -0.0179 | 2.34
HCI-002, days in culture: 227 | 5.2 | 5.07 | 4.64 | 4.59 | 2.61 | 2.26 | -0.0321 | 5.19
HCI-012, days in culture: 143 | 1.95 | 2 | 1.95 | 2.2 | 1.64 | 1.12 | -0.0164 | 1.75
HCI-012, days in culture: 162 | 2.49 | 1.94 | 2.13 | 2.98 | 1.72 | 1.53 | -0.0115 | 2.67
HCI-012, days in culture: 201 | 2.76 | 1.92 | 1.72 | 1.69 | 2.52 | 0.842 | -0.018 | 1.54
HCI-023, days in culture: 111 | 1.24 | 1.25 | 1.32 | 1.2 | 1.03 | 1.02 | -0.00294 | 1.29
HCI-023, days in culture: 128 | 1.42 | 1.43 | 1.55 | 1.48 | 1.26 | 1.03 | -0.00478 | 1.54
HCI-024, days in culture: 105 | 1.56 | 1.54 | 1.35 | 1.46 | 1.32 | 1.61 | -0.00218 | 1.84
HCI-024, days in culture: 122 | 2.18 | 2.8 | 2.14 | 1.49 | 1.64 | 1.91 | -0.00165 | 3.5
HCI-024, days in culture: 163 | 1.47 | 2.09 | 2.1 | 2.44 | 1.92 | 1.75 | 0.00762 | 2.03
HCI-025, days in culture: 172 | 2.25 | 1.2 | 2.79 | 1.4 | 1.8 | 0.991 | -0.0111 | 2.37
HCI-025, days in culture: 209 | 2.38 | 2.13 | 2.26 | 2.09 | 1.86 | 1.41 | -0.0107 | 1.71
HCI-025, days in culture: 218 | 1.78 | 2.33 | 1.93 | 1.68 | 1.57 | 1.75 | -0.00991 | 1.84

NC1(C(=O)N[C@@H](CCO)c2ccc(Cl)cc2)CCN(c2nc[nH]c3nccc2-3)CC1 [capivasertib]
CTG-3D luminescence at 96 h
Settings | 12.5 pM | 0.00025 µM | 0.005 µM | 0.1 µM | 1 µM | 10 µM | 100 µM | 625 fM
HCI-002, days in culture: 62 | 2.82 | 2.61 | 2.83 | 2.56 | 2.34 | 2.26 | 0.503 | 2.99
HCI-002, days in culture: 82 | 2.73 | 2.76 | 1.95 | 2.52 | 1.92 | 1.51 | 0.418 | 2.8
HCI-002, days in culture: 91 | 4.24 | 3.84 | 3.7 | 3.73 | 2.94 | 3.16 | 1.6 | 4
HCI-002, days in culture: 191 | 2.54 | 2.72 | 1.88 | 2.57 | 2.45 | 1.75 | 0.435 | 2.31
HCI-002, days in culture: 209 | 2.44 | 2.32 | 2.31 | 1.92 | 1.96 | 1.45 | 0.402 | 2.39
HCI-002, days in culture: 227 | 6.02 | 6.01 | 6.13 | 6.73 | 5.16 | 4.63 | 0.534 | 6.21
HCI-012, days in culture: 143 | 2.02 | 1.95 | 1.78 | 2.01 | 1.55 | 0.931 | 0.0899 | 1.91
HCI-012, days in culture: 162 | 2.5 | 2.27 | 1.88 | 2.92 | 1.51 | 1.15 | 0.236 | 3.5
HCI-012, days in culture: 201 | 2.73 | 2.11 | 1.59 | 1.5 | 1.61 | 0.543 | 0.269 | 1.74
HCI-023, days in culture: 111 | 1.51 | 1.39 | 0.992 | 0.931 | 0.434 | 0.366 | 0.16 | 1.39
HCI-023, days in culture: 128 | 1.4 | 1.63 | 1.43 | 1.22 | 0.571 | 0.658 | 0.277 | 1.75
HCI-024, days in culture: 105 | 1.73 | 1.84 | 1.39 | 1.47 | 0.926 | 0.839 | 0.401 | 2.06
HCI-024, days in culture: 122 | 2.22 | 2.39 | 1.78 | 1.68 | 1.09 | 1.35 | 0.518 | 2.23
HCI-024, days in culture: 163 | 2.16 | 1.74 | 1.93 | 2.41 | 1.56 | 1.32 | 0.629 | 2.73
HCI-025, days in culture: 172 | 2.76 | 1.4 | 3.17 | 1.35 | 1.43 | 0.474 | 0.354 | 2.57
HCI-025, days in culture: 209 | 1.74 | 1.99 | 1.44 | 0.818 | 0.472 | 0.37 | 0.266 | 1.74
HCI-025, days in culture: 218 | 1.88 | 2.08 | 1.82 | 1.2 | 0.565 | 0.592 | 0.288 | 1.69

COc1cc2c(Oc3ccc4[nH]c(C)cc4c3F)ncnc2cc1OCCCN1CCCC1 [cediranib]
CTG-3D luminescence at 96 h
Settings | 12.5 pM | 0.00025 µM | 0.005 µM | 0.1 µM | 1 µM | 10 µM | 100 µM | 625 fM
HCI-002, days in culture: 62 | 2.64 | 2.39 | 2.84 | 2.46 | 2.52 | 0.0315 | -0.00243 | 2.92
HCI-002, days in culture: 82 | 2.68 | 2.82 | 2.11 | 2.52 | 2.64 | 0.0265 | 0.00109 | 3.14
HCI-002, days in culture: 91 | 4.4 | 3.53 | 3.54 | 4.14 | 3.86 | 0.0389 | -0.00511 | 4.42
HCI-002, days in culture: 191 | 2.49 | 2.65 | 2.32 | 2.43 | 2.47 | 0.0249 | 0.000973 | 2.52
HCI-002, days in culture: 209 | 2.4 | 2.26 | 1.95 | 1.95 | 1.93 | 0.0194 | -0.000945 | 2.14
HCI-002, days in culture: 227 | 5.77 | 5.66 | 5.43 | 6.23 | 4.99 | -0.101 | -0.211 | 5.65
HCI-012, days in culture: 143 | 2.15 | 1.81 | 1.84 | 2.55 | 2.33 | 0.0236 | -0.00161 | 2
HCI-012, days in culture: 162 | 2.22 | 1.99 | 1.54 | 2.43 | 2.26 | 0.0254 | -0.00236 | 3.02
HCI-012, days in culture: 201 | 2.36 | 2.05 | 1.5 | 1.45 | 2.29 | 0.0167 | -0.00095 | 1.66
HCI-023, days in culture: 111 | 1.46 | 1.23 | 1.27 | 1.19 | 0.911 | 0.0116 | -0.00068 | 1.41
HCI-023, days in culture: 128 | 1.2 | 1.51 | 1.06 | 1.52 | 0.96 | 0.0129 | -0.00109 | 1.48
HCI-024, days in culture: 105 | 1.09 | 1.54 | 1.4 | 1.6 | 1.26 | 0.0298 | -0.000777 | 1.39
HCI-024, days in culture: 122 | 1.5 | 1.9 | 1.93 | 1.84 | 1.65 | 0.0558 | -0.000119 | 2.28
HCI-024, days in culture: 163 | 2.12 | 2.16 | 1.81 | 2.23 | 1.92 | 0.416 | 0.00136 | 2.19
HCI-025, days in culture: 172 | 2.66 | 1.84 | 3.42 | 1.99 | 2.79 | 0.0165 | -0.00438 | 2.12
HCI-025, days in culture: 209 | 1.77 | 1.18 | 1.76 | 1.47 | 2.18 | 0.022 | -0.00409 | 1.31
HCI-025, days in culture: 218 | 1.52 | 1.84 | 2.1 | 1.73 | 1.5 | 0.0433 | -0.00599 | 1.86

Source: the supplement of paper PMC8882468
